Measurements as given in US20240224993A1, “ANTIMICROBIAL COMPOSITIONS” (GOJO Industries, Inc., priority 2009, published 2024).

Experiments:
[1] = tested on: S. aureus #6538; experiment: ASTM E 2315 time-kill procedure, S. aureus; type: cell-based; conditions: contact time 15 seconds
Protocol: (§1) In vitro efficacy of these compositions was measured against E. coli, S. aureus, E. faecium, S. marcescens, S. aureus (MRSA), P. mirabilis, K. pneumoniae, and S. epidermidis. The test was conducted according to the ASTM E 2315 method, “Standard Guide for Assessment of Antimicrobial Activity Using a Time-Kill Procedure.” Contact time was 15 seconds.
(§2) In vitro efficacy of these compositions was measured against S. marcescen, and S. aureus. The test was conducted according to the ASTM E 2315 method, “Standard Guide for Assessment of Antimicrobial Activity Using a Time-Kill Procedure.” Contact time was 15 seconds.

[2] = tested on: S. marcescens #14756; experiment: ASTM E 2315 time-kill procedure, S. marcescens; type: cell-based; conditions: contact time 15 seconds
Protocol: as §1, §2

[3] = 0.5 wt. % diol, 0 wt. % ethanol
[4] = 0.5 wt. % diol, 15 wt. % ethanol
[5] = 0.5 wt. % diol, 30 wt. % ethanol
[6] = 1.0 wt. % diol, 0 wt. % ethanol
[7] = 1.0 wt. % diol, 15 wt. % ethanol
[8] = 1.0 wt. % diol, 30 wt. % ethanol

## CCO [ethanol]
[1]; 0 wt. % diol, 30 wt. % ethanol
  Log Reduction-S. aureus #6538: 0 log
[2]; 0 wt. % diol, 30 wt. % ethanol
  Log Reduction-S. marcescens #14756: 0.45 log

## CCCCCCC(O)CO (centres unmarked) [1,2-octanediol]
[1]; [3]
  Log Reduction-S. aureus #6538: 0 log
[1]; [4]
  Log Reduction-S. aureus #6538: 0.2 log
[1]; [5]
  Log Reduction-S. aureus #6538: 0.1 log
[1]; [6]
  Log Reduction-S. aureus #6538: 0.2 log
[1]; [7]
  Log Reduction-S. aureus #6538: 2.6 log
[1]; [8]
  Log Reduction-S. aureus #6538: 0.9 log
[2]; [3]
  Log Reduction-S. marcescens #14756: 0.3 log
[2]; [4]
  Log Reduction-S. marcescens #14756: 0.1 log
[2]; [5]
  Log Reduction-S. marcescens #14756: >5.1 log
[2]; [6]
  Log Reduction-S. marcescens #14756: 3.5 log
[2]; [7]
  Log Reduction-S. marcescens #14756: 2.3 log
[2]; [8]
  Log Reduction-S. marcescens #14756: >5.1 log
